# Values quoted from earlier work in article PMC3780409 (Methods in molecular biology (Clifton, N.J.), 2011).
# “Also recorded” adds a separate entry of the source.
# Columns and labels:
# [1] = system: thromboxane, ADP, collagen, or GPIb/IX/V receptors; conditions: specificity; cited from earlier work
# PAR1 [2] = conditions: cited from earlier work
# PAR1 [3] = conditions: cited from earlier work; remark: listed apart in the source
# PAR1 [4] = conditions: cited from earlier work; remark: listed apart in the source
# PAR1 [5] = conditions: cited from earlier work; remark: listed apart in the source
# PAR1 [6] = conditions: sepsis, SIRS, DIC, mice; cited from earlier work
# endothelial cells = conditions: cited from earlier work
# PAR1 [7] = conditions: human platelets, 5 μM for 1 min; cited from earlier work
# [8] = system: PAR2, PAR4, CXCR1, CXCR2, S1P1, S1P3, or CCR5 receptors; conditions: recombinantly transfected HEK293 cells; cited from earlier work
substance,measurement,setting,value
N-pal-RCLSSSAVANRS-NH2 [Pepducin P1pal-12],"aggregation of platelets induced by agonists for the thromboxane, ADP, collagen, or GPIb/IX/V receptors",[1],lack of an effect
same,p38 MAPK activation,"PAR1 [2]; human platelets, collagen",blocked p38 MAPK activation
same,collagen-induced platelet aggregation,PAR1 [2]; human platelets,Inhibition of collagen-induced platelet aggregation
same,propagation of platelet–platelet thrombi,"PAR1 [2]; human whole blood, arterial flow conditions",significantly reduced
same,thrombin plus collagen-induced calcium signal,PAR1 [3]; platelets,significantly decreased; also recorded: Decreased collagen-induced calcium signal
same,prothrombinase activity,PAR1 [3]; thrombin plus collagen,decreased the prothrombinase activity to levels induced by collagen alone
same,relaxation induced by TFLLRN or P1pal-19,PAR1 [4]; precontracted rat aortic rings,decreased relaxation
same,Outcome (thrombin-induced relaxation),PAR1 [4]; rat aortic rings,Decreased thrombin-induced relaxation in rat aortic rings
same,Outcome (thrombin generation),PAR1 [5],Delayed thrombin generation
same,Outcome,PAR1 [6],"Reduced organ damage and inflammatory mediators, inhibited neutrophil migration"
same,"responses to IL8, SDF-1α, S1P, thromboxane, MCP-1, RANTES",endothelial cells,no effect
same,aggregation in response to 3 nM thrombin,PAR1 [7],complete blockade
same,decrease in SFLLRN (PAR1 agonist)-induced aggregation,PAR1 [7],75–95%
same,"migration to ligands for PAR2, PAR4, CXCR1, CXCR2, S1P1, S1P3, or CCR5 receptors",[8],no effect
